The results in this text go back to patent publication EP2892896B1 (Bristol-Myers Squibb Company, priority 2012, dated 2014).

Structures are written as SMILES.

In general, Ki refers to a dissociation constant, usually derived from enzyme kinetics or from competition with a known ligand.

T1 sequence (Q99705 whole entry E4Q/A5T): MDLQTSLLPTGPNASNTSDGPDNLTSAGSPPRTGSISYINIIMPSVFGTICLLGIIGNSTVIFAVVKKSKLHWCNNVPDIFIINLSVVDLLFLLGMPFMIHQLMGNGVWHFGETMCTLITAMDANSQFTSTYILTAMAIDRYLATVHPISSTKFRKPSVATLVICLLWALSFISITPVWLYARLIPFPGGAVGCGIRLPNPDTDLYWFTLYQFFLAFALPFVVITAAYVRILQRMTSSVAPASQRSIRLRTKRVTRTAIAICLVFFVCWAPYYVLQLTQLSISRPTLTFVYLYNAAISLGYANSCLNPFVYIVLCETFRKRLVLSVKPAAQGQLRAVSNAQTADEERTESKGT

This assay concerns the target T1, human melanin concentrating hormone receptor (MCHR1) (Homo sapiens, UniProt Q99705, A5T/E4Q).
T1 construct: expressed in transfected cells; host or cells: HEK-293 (stably transfected), membranes
Put plainly: Radioligand binding assay for assessment of MCHR1 activity. As to conditions: membranes from HEK-293 cells expressing a mutated (E4Q, A5T) hMCHR1 receptor; competition with 0.06 - 0.1 nM [Phe13, [125I]Tyr19]-MCH; 90 min. On the procedure: Radioligand Binding Assay for Assessment of MCHR1 Activity
An in vitro binding assay was used to determine the compound Ki value or ability to antagonize binding of a peptide agonist to the human melanin concentrating hormone receptor (MCHR1). […] Binding experiments were carried out with 0.5-1.0 µg of membrane protein incubated in a total of 0.2 mL in 25 mM HEPES (pH 7.4) with 10 mM MgCl2, 2 mM EGTA, and 0.1% BSA (Binding Buffer) for 90 min. For competition binding assays, reactions were carried out in the presence of with 0.06 - 0.1 nM [Phe^13, [^125I]Tyr^19]-MCH and increasing concentrations of unlabeled test molecules. […] Filters were dried, 0.05 mL MicroScint 20 was added to each well and radioactivity was subsequently quantified by scintillation counting on a TOPCOUNT® microplate scintillation counter (Packard). Inhibitory constants were determined by nonlinear least squares analysis using a four parameter logistic equation.
For the compound `Cc1cc(N2CCC(Oc3ccc(I)cc3)C2=O)ccc1OCC(C)(C)O` (stereo not drawn) [Example 85], the Ki was 22 nM.
Compound `Cc1cc(N2CCC(Oc3ccc(C(F)(F)F)cc3)C2=O)ccc1OCC(C)(C)O` (stereo not drawn) [Example 76] registered a Ki of 26 nM.
Take `COc1cc(N2CCC(Oc3ccccc3Cl)C2=O)ccc1OCC(C)(C)O` (stereo not drawn) [Example 1, 3-(2-Chlorophenoxy)-1-(4-(2-hydroxy-2-methylpropoxy)-3-methoxyphenyl)pyrrolidin-2-one]: the inhibition constant (Ki) was found to be 5000 nM.
Take `Cc1cc(N2CC=C(Oc3ccc(C4CC4)cc3)C2=O)ccc1OCC(C)(C)O` [Example 118]: the affinity, expressed as Ki, was 9 nM.
The value for `Cc1cc(N2CCC(Oc3ccc(-c4ccc(F)cc4)cc3)C2=O)ccc1OCCS(C)(=O)=O` (stereo not drawn) [Example 109] was 6 nM; that for `COc1cc(N2CCC(Oc3ccc(-c4cccnc4)cc3)C2=O)ccc1OCC(C)(C)O` (stereo not drawn) [Example 36] was 67 nM.
The value for `COc1cc(N2CCC(Oc3ccc(-c4ccccc4)cn3)C2=O)ccc1OCC(C)(C)O` (stereo not drawn) [Example 34, 1-(4-(2-Hydroxy-2-methylpropoxy)-3-methoxyphenyl)-3-(5-phenylpyridin-2-yloxy)pyrrolidin-2-one] was 13 nM; that for `COc1cc(N2CCC(Oc3ccc(C4CC4)cc3)C2=O)ccc1OCCS(C)(=O)=O` (stereo not drawn) [Example 70] was 7 nM.
In the case of `COc1cc(N2CC[C@@H](Oc3ccc(C4CC4)cc3)C2=O)ccc1OCCS(C)(=O)=O` [Example 71, (R)-3-(4-Cyclopropylphenoxy)-1-(3-methoxy-4-(2-(methylsulfonyl)ethoxy)phenyl)pyrrolidin-2-one], the Ki worked out at 3 nM.
Consider `Cc1cc(N2CCC(Oc3ccc(CC(F)(F)F)cc3)C2=O)ccc1OCC(C)(C)O` (stereo not drawn) [Example 81], for which the Ki turned out to be 22 nM.
`COc1cc(N2CCC(Oc3ccc(-c4ccccc4)cc3)C2=O)ccc1OC[C@@H](O)CS(C)(=O)=O` (stereo partly drawn) [Example 62] displayed a Ki of 11 nM.
For the compound `COc1cc(N2CC=C(Oc3ccc(-c4ccccc4)cc3)C2=O)ccc1OCC(C)(C)O` [Example 122], affinity was put at a Ki of 3 nM.
The value for `COc1cc(N2CCC(Oc3ccc(OC(F)(F)F)c(F)c3)C2=O)ccc1OCC(C)(C)O` (stereo not drawn) [Example 18] was 959 nM; that for `COc1cc(N2CCC(Oc3ccc(-c4ccccc4C)cc3)C2=O)ccc1OCC(C)(C)O` (stereo not drawn) [Example 26] was 81 nM; that for `COc1cc(N2CCC(Oc3ccc(-c4cccc(F)c4)cc3)C2=O)ccc1OCCS(C)(=O)=O` (stereo not drawn) [Example 68] was 5 nM.
As for `CCS(=O)(=O)C[C@H](O)COc1ccc(N2CCC(Oc3ccc(OC(F)(F)F)cc3)C2=O)cc1OC` (stereo partly drawn) [Example 50], the figure is 197 nM; as for `Cc1cc(N2CC[C@H](Oc3ccc(C4CC4)cc3)C2=O)ccc1OCC(C)(C)O` [Example 83], 168 nM; as for `CCS(=O)(=O)C[C@@H](O)COc1ccc(N2CCC(Oc3ccc(C(F)(F)F)cc3)C2=O)cc1OC` (stereo partly drawn) [Example 53], 109 nM.
`COc1cc(N2CC=C(Oc3ccc(C4CC4)cc3)C2=O)ccc1OCC(C)(O)CO` (stereo not drawn) [Example 119]: the affinity corresponds to a Ki of 4 nM.
As for `COc1cc(N2CCC(Oc3ccc(-c4ccc(F)cc4)cc3)C2=O)ccc1OC[C@@H](O)CS(C)(=O)=O` (stereo partly drawn) [Example 63], the Ki came out at 38 nM.
Regarding `COc1cc(N2CCC(Oc3ccc(-c4ccccc4)cc3)C2=O)ccc1OCC1(O)CCS(=O)(=O)CC1` (stereo not drawn) [Example 57], the Ki was 2 nM.
